Patent publication US7858738B2, “Synthetic human peptides and pharmaceutical compositions comprising them for the treatment of systemic lupus erythematosus” (Yeda Research and Development Co., Ltd., priority 2001, dated 2010)

Assays:
[1] = system: BALB/c mice; assay: Treatment of 16/6Id-induced experimental SLE in BALB/c mice; format: in vivo; details: for mice with immune complex deposits in kidneys: 7 months after booster, untreated 9/10; for Anti-dsDNA O.D. (1:50), Mean ± SD: 16/6Id injected 1.1 ± 0.6; for Anti-dsDNA antibodies at a dilution of: 1:250, Mean ± SD: 16/6Id alone 1.16 ± 0.37; for Intensity of ICD In kidneys, Mean ± SD: 16/6Id alone 1.86 ± 0.38; for Anti-16/6 Id antibodies at a dilution of 1:1000, Mean ± SD: 16/6Id alone 2.55 ± 0.09; for Anti-dsDNA antibodies 1:1250, Mean ± SD: 16/6Id alone 0.47 ± 0.3; for Anti-16/6 Id antibodies 1:10000, Mean ± SD: 16/6Id alone 0.89 ± 0.1; for Intensity of ICD in kidneys, Mean ± SD: 16/6Id alone 1.6 ± 0.55
Method: Induction and treatment of experimental SLE. In order to induce experimental SLE, BALB/c mice were immunized with 1-2 μg of the human mAb 16/6Id and boosted 3 weeks later. For the prevention of experimental SLE, mice were given hCDR1 or hCDR3 (mCDR1 or revmCDR1 as control peptide in Example 12) intravenously (i.v.) or s.c. concomitant with the immunization, and were injected weekly thereafter for 5 weeks. Treatment of an established disease started three and a half months following disease induction with the 16/6Id, when clinical manifestations were already observed. In Example 12, mice received 10 weekly injections (i.v. or s.c.) of mCDR1 or revmCDR1 at a dose of 100 μg/mouse. Prevention and treatment of SLE-like disease in (NZB×NZW)F1 mice with the hCDR1 or mCDR1 peptide. For prevention of SLE, mice at the age of 2 months, before disease manifestations are observed, were injected s.c. with hCDR1 (or mCDR1 in Example 12, 250 μg/mouse) once a week for 10 weeks. To treat an established disease, mice at the age of 5-7 months were injected with hCDR1 (in Example 12, mCDR1 s.c., 250 μg/mouse) once a week for 10 weeks. Proliferative Responses. PBL were isolated from heparinized venous blood by Ficoll-Hypaque (Pharmacia) density-gradient centrifugation. All assays were performed, in triplicate, in flat-bottomed microtiter plates (Falcon, Becton Dickinson, Oxmard, Calif., USA) in which 2×10^5 PBL were cultured in enriched RPMI-1640 as described (Dayan et al., 2000). The PBL were exposed to various concentrations (0.1-40 μg/well) of the human anti-DNA 16/6Id mAb with and without the addition of the various CDR-based peptides at a concentration of at least 10-fold excess over that of the 16/6Id. Phytohemagglutinin (PHA; 2 μg/well) was used as a control for culture conditions at each experiment. The cultures were incubated in 7.5% CO2 at 37° C. for 6 days. Eighteen hours before the cells were harvested, [^3H]-thymidine (0.5μ Ci of 5 Ci/mmol) (Nuclear Research Center, Negev, Israel) was added to all cultures. Results are expressed as the mean thymidine incorporation in counts per minute (CPM) of triplicate culture±SD, or as stimulation index (S.I.; the ratio of mean CPM at the optimal concentration of the human 16/6Id to the mean CPM in the presence of medium alone). A S.I.≧2 was considered a positive response (Dayan et al., 2000). Inhibition (the ratio of mean CPM in the presence of the 16/6Id and various CDR-based peptides to the mean CPM with the 16/6Id without the CDR-based peptide) above 50% was considered positive. Induction of Cytokine Production. Mice that were immunized with the human 16/6Id mAb and either treated or not with the CDR-based peptide, were killed at different periods during or after treatment with the peptide. Splenocytes and lymph node cells (LNC) were harvested and incubated (5×10^6/ml) in the presence of the 16/6Id. Supernatants were collected after 48 and 72 h. Assessment of Cytokines in the Supernatants. Supernatants were collected 48 hours following the initiation of the cultures and stored at −70° C. Measurements of IL-2, IL-10, IFN-γ, and TNF-α were performed by ELISA by using the relevant standards, capture and detecting Abs (Pharmingen) according to the manufacturer's instructions. TGF-β was determined by an ELISA. Briefly, plates were coated with the recombinant human TGF-β1 sRIII/Fc chimera (R & D Systems Inc., Minneapolis, Minn., USA), and the second Ab used was the biotinylated anti-human TGF-β1 antibody (R & D Systems Inc.). The substrate solution used was TMB color Reagent (Helix Diagnostics, West Sacramento, Calif.), and enzyme activity was evaluated by using 570- and 630-nm filters. Detection of SLE-Associated Clinical and Pathological Manifestations. Proteinuria was measured semiquantitatively by using Combistix kit (Ames Division, Bayer Diagnostics, Newbury, U.K.). White blood cells (WBC, for leukopenia) were counted after a 10-fold dilution of heparinized blood in distilled water containing 1% acetic acid (vol/vol). […]

[2] = system: MMP-3; assay: MMP-3 levels in sera of (NZB×NZW)F1 mice (Western blot); format: in vivo; details: 300 μg s.c. once a week from age 7 months; sera after 5 injections; FIG. 23
Method: (§1) Induction and treatment of experimental SLE. In order to induce experimental SLE, BALB/c mice were immunized with 1-2 μg of the human mAb 16/6Id and boosted 3 weeks later. For the prevention of experimental SLE, mice were given hCDR1 or hCDR3 (mCDR1 or revmCDR1 as control peptide in Example 12) intravenously (i.v.) or s.c. concomitant with the immunization, and were injected weekly thereafter for 5 weeks. Treatment of an established disease started three and a half months following disease induction with the 16/6Id, when clinical manifestations were already observed. In Example 12, mice received 10 weekly injections (i.v. or s.c.) of mCDR1 or revmCDR1 at a dose of 100 μg/mouse. Prevention and treatment of SLE-like disease in (NZB×NZW)F1 mice with the hCDR1 or mCDR1 peptide. For prevention of SLE, mice at the age of 2 months, before disease manifestations are observed, were injected s.c. with hCDR1 (or mCDR1 in Example 12, 250 μg/mouse) once a week for 10 weeks. To treat an established disease, mice at the age of 5-7 months were injected with hCDR1 (in Example 12, mCDR1 s.c., 250 μg/mouse) once a week for 10 weeks. Proliferative Responses. PBL were isolated from heparinized venous blood by Ficoll-Hypaque (Pharmacia) density-gradient centrifugation. […] Results are expressed as the mean thymidine incorporation in counts per minute (CPM) of triplicate culture±SD, or as stimulation index (S.I.; the ratio of mean CPM at the optimal concentration of the human 16/6Id to the mean CPM in the presence of medium alone). […] TGF-β was determined by an ELISA. […] The substrate solution used was TMB color Reagent (Helix Diagnostics, West Sacramento, Calif.), and enzyme activity was evaluated by using 570- and 630-nm filters. […] Proteinuria was measured semiquantitatively by using Combistix kit (Ames Division, Bayer Diagnostics, Newbury, U.K.). White blood cells (WBC, for leukopenia) were counted after a 10-fold dilution of heparinized blood in distilled water containing 1% acetic acid (vol/vol). […]

[3] = system: splenocytes of (NZB×NZW)F1 mice; assay: Cytokine pattern in supernatants of splenocyte cultures of treated (NZB×NZW)F1 mice (ELISA); format: in vivo; details: end of treatment (10 weekly s.c. injections, 300 μg)
Method: as §1

[4] = system: SJL-derived LNCs; assay: In vivo inhibition of proliferation of LNC of SJL mice immunized with mCDR3; details: maximum % inhibition; 200 μg s.c. in PBS concomitant with immunization; LNC tested ten days later
Method: To this end, BALB/c and SJL mice were immunized with mCDR1 and mCDR3, respectively. The immunizing murine peptides were injected (10 μg/mouse) in CFA intradermally in the hind footpads. Concomitant with the immunization, groups of BALB/c mice were injected subcutaneously (s.c.) with 200 μg in PBS of hCDR1 and groups of SJL mice were similarly injected with hCDR3. Ten days after the immunization, mice were sacrificed and their lymph nodes were harvested and the cells were tested for their ability to proliferate following triggering with the immunizing peptides. Briefly, LNCs of immunized mice (0.5×10^6/well) were cultured (in triplicates) in the presence of different concentrations (1-20 μg/well) of the murine immunizing peptides in enriched RPMI-1640 medium supplemented with 1% normal mouse serum. Following four days of incubation, ^3H-thymidine was added for additional 16 hours. Cells were then harvested and radioactivity was counted using a β-counter.
The inhibition was calculated based on the proliferation of LNCs of mice that were not treated with the inhibitory peptides hCDR1 and hCDR3. It can be seen that hCDR1 and hCDR3 were capable of inhibiting the proliferative responses to the immunizing murine CDR peptides.

[5] = Table 11, 200 μg/mouse for 10 weeks
[6] = Table 11, 300 μg/mouse for 10 weeks
[7] = Table 11, 400 μg/mouse for 10 weeks

## GYYWSWIRQPPGKGEEWIG (Human) [hCDR1, 19-mer peptide based on the CDR1 of the heavy chain of the human 16/6Id mAb]
[1]; 100 μg/mouse
  mice with immune complex deposits in kidneys: 3/10
[1]; 300 μg/mouse for 10 weeks
  mice with immune complex deposits in kidneys: 2/9
[1]; Table 10, 100 μg, end of treatment, 16/6Id injected 0.65 ± 0.36
  Proteinuria g/l, Mean ± SD: 0.3 ± 0.02 g/L
[1]; Table 10, 100 μg, end of treatment
  Anti-dsDNA O.D. (1:50), Mean ± SD: 0.3 ± 0.2 O.D.
[1]; Table 10, 100 μg, end of treatment, 16/6Id injected 3260 ± 920
  WBC/mm^3, Mean ± SD: 6090 ± 2160 /mm^3
[1]; Table 10, 300 μg, end of treatment, 16/6Id injected 0.65 ± 0.36
  Proteinuria g/l, Mean ± SD: 0.34 ± 0.25 g/L
[1]; Table 10, 300 μg, end of treatment
  Anti-dsDNA O.D. (1:50), Mean ± SD: 0.55 ± 0.3 O.D.
[1]; Table 10, 300 μg, end of treatment, 16/6Id injected 3260 ± 920
  WBC/mm^3, Mean ± SD: 5890 ± 2660 /mm^3
[1]; Table 11, 200 μg/mouse for 10 weeks, 16/6Id alone 0.5 ± 0.34
  Proteinuria g/l, Mean ± SD: 0.13 ± 0.16 g/L
[1]; [5]
  Anti-dsDNA antibodies at a dilution of: 1:250, Mean ± SD: 0.69 ± 0.39
  Intensity of ICD In kidneys, Mean ± SD: 0.57 ± 0.97
  Anti-16/6 Id antibodies at a dilution of 1:1000, Mean ± SD: 2.7 ± 0.12
[1]; Table 11, 200 μg/mouse for 10 weeks, 16/6Id alone 2871 ± 1205
  WBC/mm^3, Mean ± SD: 5625 ± 1659 /mm^3
[1]; Table 11, 300 μg/mouse for 10 weeks, 16/6Id alone 0.5 ± 0.34
  Proteinuria g/l, Mean ± SD: 0.16 ± 0.16 g/L
[1]; [6]
  Anti-dsDNA antibodies at a dilution of: 1:250, Mean ± SD: 0.45 ± 0.24
  Intensity of ICD In kidneys, Mean ± SD: 0.75 ± 0.71
  Anti-16/6 Id antibodies at a dilution of 1:1000, Mean ± SD: 2.8 ± 0.11
[1]; Table 11, 300 μg/mouse for 10 weeks, 16/6Id alone 2871 ± 1205
  WBC/mm^3, Mean ± SD: 4677 ± 1508 /mm^3
[1]; Table 11, 400 μg/mouse for 10 weeks, 16/6Id alone 0.5 ± 0.34
  Proteinuria g/l, Mean ± SD: 0.11 ± 0.15 g/L
[1]; [7]
  Anti-dsDNA antibodies at a dilution of: 1:250, Mean ± SD: 0.8 ± 0.39
  Intensity of ICD In kidneys, Mean ± SD: 0.71 ± 0.76
  Anti-16/6 Id antibodies at a dilution of 1:1000, Mean ± SD: 2.75 ± 0.1
[1]; Table 11, 400 μg/mouse for 10 weeks, 16/6Id alone 2871 ± 1205
  WBC/mm^3, Mean ± SD: 4012 ± 1421 /mm^3
[1]; Table 12, 200 μg/mouse weekly
  Anti-dsDNA antibodies 1:1250, Mean ± SD: 0.23 ± 0.1
  Anti-16/6 Id antibodies 1:10000, Mean ± SD: 0.96 ± 0.2
  Intensity of ICD in kidneys, Mean ± SD: 1 ± 0.63
[1]; Table 12, 200 μg/mouse weekly, 16/6Id alone 0.58 ± 0.34
  Proteinuria g/l, Mean ± SD: 0.17 ± 0.15 g/L
[1]; Table 12, 200 μg/mouse weekly, 16/6Id alone 2800 ± 300
  WBC/mm^3, Mean ± SD: 4900 ± 800 /mm^3
[1]; Table 12, 300 μg/mouse weekly
  Anti-dsDNA antibodies 1:1250, Mean ± SD: 0.2 ± 0.1
  Anti-16/6 Id antibodies 1:10000, Mean ± SD: 0.93 ± 0.1
  Intensity of ICD in kidneys, Mean ± SD: 0.5 ± 0.5
[1]; Table 12, 300 μg/mouse weekly, 16/6Id alone 0.58 ± 0.34
  Proteinuria g/l, Mean ± SD: 0.085 ± 0.01 g/L
[1]; Table 12, 300 μg/mouse weekly, 16/6Id alone 2800 ± 300
  WBC/mm^3, Mean ± SD: 5800 ± 300 /mm^3
[2]
  levels of MMP-3 in pooled sera: down regulated
[3]; FIG. 13A
  INF-γ in supernatants of Con A-stimulated splenocytes: down-regulated
[3]; FIG. 13C
  TGF-β in supernatants of non-stimulated splenocytes: increased secretion
[3]; to a lesser extent, FIG. 13B
  IL-10 in supernatants of Con A-stimulated splenocytes: down-regulated

## YYCARGLLRGGWNDVDYYGMDV (Human) [hCDR3, peptide based on the CDR3 of the heavy chain of the human 16/6Id mAb]
[4]
  % Inhibition of the proliferation of SJL-derived LNCs to mCDR3: 55%
